“Also recorded” adds a separate entry of the source.
What was measured:
E. coli K12 = assay: inhibition of growth in solid medium (inhibition diameter); format: cell-based; conditions: for diameter of inhibition, K12: solid medium
Protocol: (§1) A preculture of the strains E. coli K12, S. aureus and S. epidermis in Mueller Hinton Broth medium (Mueller and Hinton, 1941) is carried out at 37° C., until an optical density of 0.1 at 650 nm is obtained. 100 μl of the preculture is added to 10 ml of the medium: 0.1% agarose, 10 mM sodium phosphate pH 7.4; 0.3 mg/ml trypcase-soy; 100 mM NaCl.
(§2) The mixture is poured into a […] Petri dish. Wells are made in the gelose and 5 μl of the solutions to be tested, containing the screened products, are placed in each well. The dishes are left at ambient temperature for 2 hours, then 10 ml of the medium (1% agarose; 10 mM sodium phosphate—pH 7.4-6% trypcase-soy) are poured into the Petri dish forming an overlay. After solidification, the dishes are incubated overnight at 37° C.
(§3) The antibacterial activity is evaluated by measuring the diameter of the bacterial growth inhibition of the zone at the centre of which the product was placed.

S aureus = assay: as above; format: cell-based; conditions: for diameter of inhibition, S aureus: solid medium
Protocol: as §1, §2, §3

S epidermidis = assay: as above; format: cell-based
Protocol: as §1, §2, §3

[1] = target: T1, bond between the core enzyme of the RNA polymerase and the protein σ^70 (Escherichia coli, UniProt P0A7Z4+P0A8T7+P0A8V2); assay: sigma70-RNA polymerase bond test (ELISA-type complexation test); format: binding, E. coli
T1 construct: made in house
T1 sequence (P0A8T7 whole entry): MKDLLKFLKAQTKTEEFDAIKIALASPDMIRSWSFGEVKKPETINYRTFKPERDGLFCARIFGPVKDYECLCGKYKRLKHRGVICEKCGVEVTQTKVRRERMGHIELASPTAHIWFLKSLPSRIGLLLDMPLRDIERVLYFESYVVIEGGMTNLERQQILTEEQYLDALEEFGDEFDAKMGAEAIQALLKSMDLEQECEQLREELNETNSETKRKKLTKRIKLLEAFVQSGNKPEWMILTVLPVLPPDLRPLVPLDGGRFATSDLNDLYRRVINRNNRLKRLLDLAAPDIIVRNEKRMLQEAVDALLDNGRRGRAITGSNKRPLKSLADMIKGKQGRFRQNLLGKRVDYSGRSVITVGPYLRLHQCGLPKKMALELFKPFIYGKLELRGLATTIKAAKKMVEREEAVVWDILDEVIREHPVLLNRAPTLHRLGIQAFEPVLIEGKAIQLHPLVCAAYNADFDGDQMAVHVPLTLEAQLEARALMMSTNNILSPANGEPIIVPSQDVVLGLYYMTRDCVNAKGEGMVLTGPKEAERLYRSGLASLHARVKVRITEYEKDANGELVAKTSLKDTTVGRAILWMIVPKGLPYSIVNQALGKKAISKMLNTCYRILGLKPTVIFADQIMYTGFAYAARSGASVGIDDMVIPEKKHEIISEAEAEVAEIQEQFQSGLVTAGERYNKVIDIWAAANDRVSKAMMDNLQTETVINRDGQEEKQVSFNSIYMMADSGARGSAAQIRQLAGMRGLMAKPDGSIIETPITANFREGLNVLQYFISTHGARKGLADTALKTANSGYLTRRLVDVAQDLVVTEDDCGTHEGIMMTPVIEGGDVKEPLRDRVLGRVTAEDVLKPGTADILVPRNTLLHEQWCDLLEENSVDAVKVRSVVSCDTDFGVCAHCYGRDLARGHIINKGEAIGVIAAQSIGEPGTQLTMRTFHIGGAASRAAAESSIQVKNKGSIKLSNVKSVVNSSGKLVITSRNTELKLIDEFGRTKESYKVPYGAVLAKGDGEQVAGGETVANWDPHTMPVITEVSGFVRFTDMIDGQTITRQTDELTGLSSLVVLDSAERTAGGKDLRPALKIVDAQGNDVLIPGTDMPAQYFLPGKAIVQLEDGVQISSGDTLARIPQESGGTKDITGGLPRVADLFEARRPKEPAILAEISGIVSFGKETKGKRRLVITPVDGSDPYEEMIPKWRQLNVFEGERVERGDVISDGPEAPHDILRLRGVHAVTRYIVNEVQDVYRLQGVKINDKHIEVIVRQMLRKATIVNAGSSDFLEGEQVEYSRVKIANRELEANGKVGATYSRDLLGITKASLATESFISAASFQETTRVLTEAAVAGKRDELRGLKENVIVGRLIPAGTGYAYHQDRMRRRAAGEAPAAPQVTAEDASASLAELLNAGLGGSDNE
T1 sequence (P0A8V2 whole entry): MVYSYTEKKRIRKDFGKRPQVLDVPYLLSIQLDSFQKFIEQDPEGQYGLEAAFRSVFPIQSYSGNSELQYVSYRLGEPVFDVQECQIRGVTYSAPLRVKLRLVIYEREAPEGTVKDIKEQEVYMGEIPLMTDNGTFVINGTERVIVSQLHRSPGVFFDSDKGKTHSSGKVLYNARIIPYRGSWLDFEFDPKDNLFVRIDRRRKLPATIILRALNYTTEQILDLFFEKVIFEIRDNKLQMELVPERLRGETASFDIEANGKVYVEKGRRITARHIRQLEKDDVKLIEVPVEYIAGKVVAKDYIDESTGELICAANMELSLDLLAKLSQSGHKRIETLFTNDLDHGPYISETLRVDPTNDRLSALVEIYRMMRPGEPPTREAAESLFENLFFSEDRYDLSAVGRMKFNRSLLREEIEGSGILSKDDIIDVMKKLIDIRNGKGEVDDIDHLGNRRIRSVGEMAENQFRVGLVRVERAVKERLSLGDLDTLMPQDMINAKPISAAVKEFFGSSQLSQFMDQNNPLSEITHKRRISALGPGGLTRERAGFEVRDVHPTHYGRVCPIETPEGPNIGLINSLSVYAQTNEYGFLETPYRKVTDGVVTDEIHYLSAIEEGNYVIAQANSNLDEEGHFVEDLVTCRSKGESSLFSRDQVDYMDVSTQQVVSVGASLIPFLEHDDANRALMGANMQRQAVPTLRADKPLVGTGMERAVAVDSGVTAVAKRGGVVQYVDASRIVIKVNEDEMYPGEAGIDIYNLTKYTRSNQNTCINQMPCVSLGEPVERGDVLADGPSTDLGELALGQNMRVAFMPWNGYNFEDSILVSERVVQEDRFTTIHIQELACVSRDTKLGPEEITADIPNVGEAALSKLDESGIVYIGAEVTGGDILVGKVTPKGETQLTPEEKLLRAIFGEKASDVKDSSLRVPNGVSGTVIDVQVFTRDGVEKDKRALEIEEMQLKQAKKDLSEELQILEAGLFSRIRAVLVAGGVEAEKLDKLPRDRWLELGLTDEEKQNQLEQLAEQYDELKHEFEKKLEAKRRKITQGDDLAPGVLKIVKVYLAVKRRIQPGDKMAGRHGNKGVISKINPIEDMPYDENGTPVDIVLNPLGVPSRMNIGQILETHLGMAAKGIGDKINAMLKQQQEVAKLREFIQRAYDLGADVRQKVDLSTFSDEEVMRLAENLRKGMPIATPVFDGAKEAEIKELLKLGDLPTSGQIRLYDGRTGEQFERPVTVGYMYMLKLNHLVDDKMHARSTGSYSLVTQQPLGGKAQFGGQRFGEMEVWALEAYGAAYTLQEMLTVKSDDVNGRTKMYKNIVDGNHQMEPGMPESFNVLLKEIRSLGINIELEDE
T1 sequence (P0A7Z4 whole entry): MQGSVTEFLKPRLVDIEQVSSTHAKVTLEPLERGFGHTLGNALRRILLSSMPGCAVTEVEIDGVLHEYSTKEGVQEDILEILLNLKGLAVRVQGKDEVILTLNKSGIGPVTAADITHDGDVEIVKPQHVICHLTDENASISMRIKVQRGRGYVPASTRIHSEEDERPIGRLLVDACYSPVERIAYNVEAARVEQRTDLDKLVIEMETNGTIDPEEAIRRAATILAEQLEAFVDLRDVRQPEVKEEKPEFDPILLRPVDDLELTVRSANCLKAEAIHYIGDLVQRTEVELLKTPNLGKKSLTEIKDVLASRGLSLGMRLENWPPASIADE
Protocol: Thus, the different compounds tested are incubated in the presence of the core enzyme in a microassay dish on which the protein σ^70 is adsorbed, each well of the plate containing 1 μM of σ^70 during the adsorption phase.
The sigma70 proteins and the RNA polymerase of E. coli are expressed and purified under standard conditions (Burgess et al., Biochemistry, 1975, October 21; 14(21): 4634-8; Burgess R., Methods Enzymol 1996; 273: 145-9). The sigma70 protein is stored at −80° C. in (20 mM tris HCl pH 8; 5 M guanidine chloride; 10 mM β-mercaptoethanol; 50% glycerol) at a concentration of 100 μM. The core RNA polymerase is stored at −80° C. in (20 mM tris HCl pH 8, 100 mM KCl, 10 mM β-mercaptoethanol, 50% glycerol) at a concentration of 1 μM. The antipolymerase monoclonal antibody was obtained and purified by standard techniques (Short Protocols in Molecular Biology 2nd edition, John Wiley & Its) then chemically coupled to activated peroxidase (Boehringer Mannheim Biochemica ref. 1428861) according to the supplier's recommendations.
The test is based on the adsorption of sigma70 on an ELISA plate for 12 hours at 4° C. (6 pmoles of protein diluted in 100 μl of PBS per well, on Nunc-immuno plates, Maxisorp.). The protein dilutions and the buffers were optimized in order to reduce the non-specific bond of the RNA polymerase. After washing the plate with PBS 0.1% tween20, the plate is saturated with 200 μl of PBS 0.1% tween20, 1% BSA then incubated for 1 hour at ambient temperature with the RNA polymerase of E. coli (0.25 pmole of core RNA polymerase in 100 μl of PBS 0.1% tween 20, 1% BSA, 10 mM MgCl2) in the presence or in the absence of an optional inhibitor. […] The sigma70-RNA polymerase antibody complex is detected with a substrate of peroxidase, O-phenylenediamine, or another appropriate medium. […]
After three washings with 0.1% PBS-T (v/v), the peroxidase substrate is added (OPD, Biorad). The reaction takes place for 2 to 3 minutes in darkness then an absorbance measurement is carried out at 490 nm, after stopping the reaction with 50 μl of 4N H2SO4. […]

[2] = target: T2, bond between the RNA polymerase and the protein NusA (Escherichia coli, UniProt P0A7Z4+P0A8T7+P0A8V2); assay: NusA-RNA polymerase bond test (ELISA-type complexation test); format: binding, E. coli
T2 construct: polyhistidine (C); made in house; host or cells: NusA: BL21 lambda DE3 E. coli cells (printed 'BL211amdaDE3'), pet21-type vector
Protocol: More precisely, the different compounds tested (from the family of 5,988,031) are incubated in the presence of core enzyme in a microassay dish on which the protein NusA is adsorbed at a concentration equal to 20 μg/ml.
The gene coding for the protein NusA and comprising a C-terminal polyhistidine tag was cloned in a pet21-type vector. After transfection in BL211amdaDE3 cells, the cells are cultured in LB medium at 37° C. under vigorous stirring. The production of protein is induced by the addition of 1 mM IPTG. After 3 hours' culture, the cells are recovered by centrifugation and lysed according to (Burgess et al., Biochemistry, 1975 October 21; 14(21): 4634-8). After centrifugation, the supernatant is passed over an Ni NTA agarose column (Quiagen) according to the supplier's recommendations. The protein NusA is stored at −80° C. in (20 mM tris HCl pH 8; 5 M guanidine chloride; 10 mM β-mercaptoethanol; 50% glycerol) at a concentration of 100 μM.
The test is based on the adsorption of NusA on an ELISA plate for 12 hours at 4° C. (6 pmoles of protein diluted in 100 μl of PBS per well on Nunc-immuno plates, Maxisorp.). The dilutions of protein and the buffers were optimized in order to reduce the non-specific bond of the RNA polymerase. […] The sigma70-RNA polymerase-antibody complex is detected with a substrate of peroxidase, O-phenylenediamine, or another appropriate medium. […]

[3] = target: bond between an antibody, for example 11D11, and the RNA polymerase (Escherichia coli, UniProt P0A7Z4+P0A8T7+P0A8V2); assay: specificity: antibody-RNA polymerase bond; format: binding, E. coli
E. coli TG1 cells = assay: inhibition of growth in microassay dish; format: cell-based; conditions: FIG. 4; optical density at 650 nm after 12 hours at 37° C.
Protocol: FIG. 4 corresponds to the inhibition of the growth of E. coli TG1 cells by the abovementioned compound 5,988,031. This figure represents the optical density measured at 650 nm (y-axis) with reference to the concentration of the compound 5,988,031 in μg/ml (x-axis).
The E. coli TG1 cells, diluted according to the protocol described hereafter in the experimental part, are incubated with increasing concentrations of the compound 5,988,031. The growth of the bacteria is measured at 650 nm after incubation for 12 hours at 37° C. under stirring in a microassay dish.
The various compounds isolated are tested for their TG1 E. coli bacteria growth-inhibiting properties. Cells in stationary phase are diluted to {fraction (1/10,000)} in LB medium (tryptone 10 g; yeast extract 5 g; NaCl 5 g) and are transfected in a microassay dish (200 μl/well). The molecules are added to 10% DMSO, at a final concentration of 100 mg/ml. […] After incubation overnight at 37° C. under stirring, the optical density of each well at 650 nm is measured.

[4] = target: assembly of the α, β and β′ subunits (Escherichia coli, UniProt P0A7Z4+P0A8T7+P0A8V2); assay: specificity: assembly of RNA polymerase subunits; format: binding, E. coli
M. Luteus = assay: antibiotic activity on other strains tested; format: cell-based; conditions: concentration not given
[5] = other strains tested, concentration not given

SMILES | diameter of inhibition, K12 (E. coli K12; 500 μg/ml) | diameter of inhibition, S aureus (S aureus; 500 μg/ml) | diameter of inhibition, S epidermidis (S epidermidis; 500 μg/ml) | inhibition of the bond between σ^70 and the RNA polymerase (in words) [1] | also measured
O=C(/C=C/c1ccc(-c2ccc([N+](=O)[O-])cc2)o1)c1cc2ccccc2o1 [5,761,890] | negative | negative | negative |  | 
CN[C@H](CC(C)C)C(=O)N[C@H]1C(=O)N[C@@H](CC(N)=O)C(=O)N[C@H]2C(=O)N[C@H]3C(=O)N[C@H](C(=O)N[C@H](C(=O)O)c4cc(O)cc(O)c4-c4cc3ccc4O)[C@H](O)c3ccc(c(Cl)c3)Oc3cc2cc(c3O[C@@H]2O[C@H](CO)[C@@H](O)[C@H](O)[C@H]2O[C@H]2C[C@](C)(N)[C@H](O)[C@H](C)O2)Oc2ccc(cc2Cl)[C@H]1O [vancomycin, reference compound] |  |  |  |  | diameter of inhibition, K12 (E. coli K12; 50 μg/ml): negative; diameter of inhibition, S aureus (S aureus; 50 μg/ml): 5 mm; diameter of inhibition, S epidermidis (S epidermidis; 50 μg/ml): 5 mm
COc1ccc(-c2ccc(/C=C/C(=O)c3cc4ccccc4o3)o2)cc1 [compound 5,858,445] | negative | 4.2 mm | 4.2 mm | most active | 
O=C(/C=C/c1ccc(-c2cccc([N+](=O)[O-])c2)o1)c1cc2ccccc2o1 [5,768,818] | negative | negative | negative |  | 
Cc1ccc(C)n1-c1ccc(OCC(=O)O)cc1 [compound 5,988,031] |  |  |  | most active; also recorded: inhibits | activity on E. coli K12 (in words) (E. coli K12; [5]): not active; activity on S. aureus (in words) (S aureus; [5]): not active; inhibition of the bond between NusA and the RNA polymerase (in words) [2]: inhibits; inhibition of the bond between an antibody (11D11) and the RNA polymerase (in words) [3]: not; inhibition of the growth of E. coli TG1 cells (in words) (E. coli TG1 cells): inhibits; inhibition of the assembly of the α, β and β′ subunits (in words) [4]: not; activity on M. Luteus (in words) (M. Luteus): not active; IC50 ([1]; FIG. 1, σ^70 adsorbed on plate, core enzyme, antibody 11D11-peroxidase, read-out: concentration giving 50% inhibition of the bond between σ^70 and the RNA polymerase (converted)): ~20.4 µM
